Experimental data published in ChEMBL document CHEMBL1221184, “Identifying off-target effects and hidden phenotypes of drugs in human cells” (Nat Chem Biol, 2006).
Active and inactive are the calls of the source. The rule behind the calls is not given here. Positions of bridges follow the written chain, without caps; N, C: chain ends. Non-standard residues stand in square brackets, D forms with d. Residues, ends and D or L forms follow the SMILES beside them. Nle = CCCC[C@H](N)C(=O)O

Legend:
PC-3 [1] = test: Antiproliferative activity against human PC3 cells at 200 nM after 120 hrs by MTT assay relative to DMSO; assay type: functional
PC-3 [2] = test: Antiproliferative activity against human PC3 cells at 20 uM after 120 hrs by MTT assay relative to DMSO; assay type: functional
PC-3 [3] = test: Antiproliferative activity against human PC3 cells at 3 uM after 120 hrs by MTT assay relative to DMSO; assay type: functional
[4] = biological target: Transcription factor Jun (Homo sapiens) (UniProt P05412); test: Activation of c-Jun expressed in HEK293 cells assessed as induction of protein interaction with Pin1 by EYFP based reporter gene assay; assay type: cell-based
[5] = biological target: Cyclin-dependent kinase 1 (Homo sapiens) (UniProt P06493); test: Effect on Cdc2 expressed in HEK293 cells assessed as effect on Cdc2:Cdc25C interaction complexes in presence of camptothecin by EYFP and/or YFP Venus fragment based reporter gene assay; assay type: cell-based
[6] = biological target: Cyclin-dependent kinase 1 (Homo sapiens) (UniProt P06493); test: Effect on Cdc2 expressed in HEK293 cells assessed as effect on Cdc2:Cdc25A interaction complexes in presence of camptothecin by EYFP and/or YFP Venus fragment based reporter gene assay; assay type: cell-based
[7] = biological target: Transcription factor Jun (Homo sapiens) (UniProt P05412); test: Inhibition of c-Jun expressed in HEK293 cells assessed as induction of protein interaction in presence of camptothecin with Pin1 by EYFP based reporter gene assay; assay type: cell-based
Cofilin-1 (Homo sapiens) [8] = biological target: Cofilin-1 (Homo sapiens) (UniProt P23528); test: Effect on cofilin1 expressed in HEK293 cells assessed as effect on cofilin1; Limk2 interaction complexes in presence of camptothecin by EYFP and/or YFP Venus fragment based reporter gene assay; assay type: cell-based
[9] = biological target: Cyclin-dependent kinase 1 (Homo sapiens) (UniProt P06493); test: Inhibition of Cdc2 expressed in HEK293 cells assessed as effect on Cdc2:Cdc25C interaction complexes in presence of camptothecin by EYFP and/or YFP Venus fragment based reporter gene assay; assay type: cell-based
PC-3 [10] = test: Antiproliferative activity against human PC3 cells at 25 uM after 120 hrs by MTT assay relative to DMSO; assay type: functional
HEK293 [11] = test: Inhibition of proteasome expressed in HEK293 cells assessed as effect on CyclinD1-CDK4 interaction complexes by EYFP and/or YFP Venus fragment based reporter gene assay
HEK293 [12] = test: Inhibition of proteasome expressed in HEK293 cells assessed as effect on E6:E6AP interaction complexes by EYFP and/or YFP Venus fragment based reporter gene assay
HEK293 [13] = test: Inhibition of proteasome expressed in HEK293 cells assessed as effect on Pin1-Jun interaction complexes by EYFP and/or YFP Venus fragment based reporter gene assay
HEK293 [14] = test: Inhibition of proteasome expressed in HEK293 cells assessed as effect on p53-Chk1 interaction complexes by EYFP and/or YFP Venus fragment based reporter gene assay
HEK293 [15] = test: Inhibition of proteasome expressed in HEK293 cells assessed as effect on p53-p53 interaction complexes by EYFP and/or YFP Venus fragment based reporter gene assay
Cofilin-1 (Homo sapiens) [16] = biological target: Cofilin-1 (Homo sapiens) (UniProt P23528); test: Effect on cofilin1 expressed in HEK293 cells assessed as effect on cofilin1; Limk2 interaction complexes by EYFP and/or YFP Venus fragment based reporter gene assay; assay type: cell-based
PC-3 [17] = test: Antiproliferative activity against human PC3 cells at 100 nM after 120 hrs by MTT assay relative to DMSO; assay type: functional
HEK293 [18] = test: Inhibition of HSP90 expressed in HEK293 cells assessed as effect on Akt1:p27 interaction complexes by EYFP and/or YFP Venus fragment based reporter gene assay; assay type: cell-based
PC-3 [19] = test: Antiproliferative activity against human PC3 cells at 5 uM after 120 hrs by MTT assay relative to DMSO; assay type: functional
PC-3 [20] = test: Antiproliferative activity against human PC3 cells at 300 nM after 120 hrs by MTT assay relative to DMSO; assay type: functional
PC-3 [21] = test: Antiproliferative activity against human PC3 cells at 50 ug/ml after 120 hrs by MTT assay relative to DMSO; assay type: functional
PC-3 [22] = test: Antiproliferative activity against human PC3 cells at 15 uM after 120 hrs by MTT assay relative to DMSO; assay type: functional
PC-3 [23] = test: Antiproliferative activity against human PC3 cells at 30 uM after 120 hrs by MTT assay relative to DMSO; assay type: functional
PC-3 [24] = test: Antiproliferative activity against human PC3 cells at 1.5 uM after 120 hrs by MTT assay relative to DMSO; assay type: functional
PC-3 [25] = test: Antiproliferative activity against human PC3 cells at 2.5 uM after 120 hrs by MTT assay relative to DMSO; assay type: functional

Chain of Cyclin-dependent kinase 1 (Homo sapiens) (P06493 whole entry, looked up, the tested form may be a part): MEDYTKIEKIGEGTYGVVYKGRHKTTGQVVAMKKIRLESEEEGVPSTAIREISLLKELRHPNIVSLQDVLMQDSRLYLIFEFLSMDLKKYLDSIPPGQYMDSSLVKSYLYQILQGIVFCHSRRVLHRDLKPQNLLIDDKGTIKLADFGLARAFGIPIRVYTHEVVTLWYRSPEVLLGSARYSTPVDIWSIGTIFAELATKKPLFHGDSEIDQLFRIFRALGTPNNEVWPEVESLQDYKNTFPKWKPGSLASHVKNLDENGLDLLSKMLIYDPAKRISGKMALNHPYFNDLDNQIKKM
Chain of Cofilin-1 (Homo sapiens) (P23528 whole entry, the tested form may be a part): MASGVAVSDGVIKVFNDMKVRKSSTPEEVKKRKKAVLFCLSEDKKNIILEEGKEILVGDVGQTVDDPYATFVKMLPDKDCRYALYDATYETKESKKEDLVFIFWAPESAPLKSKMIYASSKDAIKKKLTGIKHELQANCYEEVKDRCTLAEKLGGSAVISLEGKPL
Chain of Transcription factor Jun (Homo sapiens) (P05412 whole entry, the tested form may be a part): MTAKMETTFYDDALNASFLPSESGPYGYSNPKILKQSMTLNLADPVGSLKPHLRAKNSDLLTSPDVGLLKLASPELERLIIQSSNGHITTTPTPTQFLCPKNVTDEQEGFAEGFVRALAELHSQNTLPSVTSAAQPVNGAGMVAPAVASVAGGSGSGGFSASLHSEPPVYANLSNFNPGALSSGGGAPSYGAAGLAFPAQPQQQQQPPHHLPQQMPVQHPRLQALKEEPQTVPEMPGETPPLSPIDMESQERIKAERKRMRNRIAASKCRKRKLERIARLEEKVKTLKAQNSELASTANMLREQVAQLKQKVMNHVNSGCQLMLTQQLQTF

SMILES: COc1cc2ncnc(Nc3cccc(Br)c3)c2cc1OC
- fold change (FC) (PC-3 [1]): 0.983

SMILES: COc1cccc(-c2cc(=O)c3ccccc3o2)c1N
- fold change (FC) (PC-3 [2]): 0.901

SMILES: CN(CCOc1ccc(C[C@H](Nc2ccccc2C(=O)c2ccccc2)C(=O)O)cc1)c1ccccn1
- fold change (FC) (PC-3 [3]): 0.956

SMILES: CC(C)OC(=O)C(C)(C)Oc1ccc(C(=O)c2ccc(Cl)cc2)cc1
- Activity [4]: Active
- Activity [5]: Active
- Activity [6]: Active
- Activity [7]: Active
- Activity (Cofilin-1 (Homo sapiens) [8]): Active
- inhibition [9]: Active

SMILES: CCCC[C@@H](C=O)NC(=O)[C@H](CC(C)C)NC(=O)[C@H](CC(C)C)NC(C)=O (Ac-Leu-Leu-[Nle]-aldehyde)
- fold change (FC) (PC-3 [10]): 0.26
- inhibition (HEK293 [11]): Active
- inhibition (HEK293 [12]): Active
- inhibition (HEK293 [13]): Active
- inhibition (HEK293 [14]): Active
- inhibition (HEK293 [15]): Active
- Activity (Cofilin-1 (Homo sapiens) [16]): Active

SMILES: CC[C@H](C)[C@H](NC(=O)[C@@H](NC(=O)[C@H](CC(=O)O)NC(=O)[C@H](CCC(N)=O)NC(=O)[C@H](Cc1cnc[nH]1)NC(=O)[C@@H]1CSSC[C@H](N)C(=O)N[C@@H](CO)C(=O)N[C@H]2CSSC[C@H](NC(=O)[C@H](CCC(=O)O)NC(=O)[C@H](CCCCN)NC(=O)[C@H](CC(=O)O)NC(=O)[C@H]([C@@H](C)O)NC(=O)[C@H](CCSC)NC(=O)[C@H](CC(=O)O)NC(=O)[C@H](CCCCN)NC2=O)C(=O)N[C@@H](CC(C)C)C(=O)N[C@@H](Cc2ccc(O)cc2)C(=O)N[C@@H](Cc2ccccc2)C(=O)N1)C(C)C)C(=O)N[C@@H](Cc1c[nH]c2ccccc12)C(=O)O (H-CSCKDMTDKECLYFCHQDVIW-OH; disulfide 1-15, 3-11)
- fold change (FC) (PC-3 [17]): 1.037

SMILES: C=CCNC1=C2C[C@@H](C)C[C@H](OC)[C@H](O)[C@@H](C)/C=C(\C)[C@H](OC(N)=O)[C@@H](OC)/C=C\C=C(/C)C(=O)NC(=CC1=O)C2=O (stereo in doubt) [TANESPIMYCIN]
- inhibition (HEK293 [18]): Active
- fold change (FC) (PC-3 [19]): 0.264

SMILES: CC[C@H](C)[C@H](NC(=O)[C@H](Cc1ccc(O)cc1)NC(=O)[C@@H](NC(=O)[C@H](CCCNC(=N)N)NC(=O)[C@@H](N)CC(=O)O)C(C)C)C(=O)N[C@@H](Cc1cnc[nH]1)C(=O)N1CCC[C@H]1C(=O)N[C@@H](Cc1ccccc1)C(=O)O [ANGIOTENSIN II]
- fold change (FC) (PC-3 [20]): 1.018

SMILES: C[C@H]1CCC/C=C/[C@@H]2C[C@H](O)C[C@H]2[C@H](O)/C=C/C(=O)O1 [BREFELDIN A]
- fold change (FC) (PC-3 [21]): 0.245

SMILES: CC1(COc2ccc(CC3SC(=O)NC3=O)cc2)CCCCC1 (stereo not drawn) [CIGLITAZONE]
- fold change (FC) (PC-3 [22]): 0.934

SMILES: CCOC(=O)C(C)(C)Oc1ccc(Cl)cc1 [CLOFIBRATE]
- fold change (FC) (PC-3 [23]): 1.021
- Activity [4]: Active
- Activity [5]: Active
- Activity [6]: Active
- Activity [7]: Active
- Activity (Cofilin-1 (Homo sapiens) [8]): Active
- inhibition [9]: Active

SMILES: C/C(=C\c1csc(C)n1)[C@@H]1C[C@@H]2O[C@@H]2CCC[C@H](C)[C@H](O)[C@@H](C)C(=O)C(C)(C)[C@@H](O)CC(=O)O1 [EPOTHILONE A]
- fold change (FC) (PC-3 [17]): 0.291

SMILES: C=C1C[C@@H]2[C@H](CC[C@]3(C)C(=O)CC[C@@H]23)[C@@]2(C)C=CC(=O)C=C12 [EXEMESTANE]
- fold change (FC) (PC-3 [24]): 0.975

SMILES: COC1=C2C[C@@H](C)C[C@H](OC)[C@H](O)[C@@H](C)/C=C(\C)[C@H](OC(N)=O)[C@@H](OC)/C=C\C=C(/C)C(=O)NC(=CC1=O)C2=O [GELDANAMYCIN]
- inhibition (HEK293 [18]): Active
- fold change (FC) (PC-3 [25]): 0.261
